We go through twelve compounds from patent EP0186275A2, “2-Substituted amino-4(1H)-pyrimidone derivatives, their production, and medical compositions containing them” (YAMANOUCHI PHARMACEUTICAL CO. LTD., priority 1984, dated 1986).

The test system of data set [1] is Male Wistar rats. Briefly: Gastric cytoprotection (ethanol ulcer rat). Format: in vivo. Here is the method:
3) Gastric cytoprotection: Male Wistar rats (about 200 […]) were starved for 24 hours and deprived of water for 18 hours prior to the experiment. Absolute ethanol (1 ml/rat) was given orally to rats one hour after p.o. administration of the test compounds. One hour later, animals were sacrificed for the measurement of gastric lesions (mm^2).

Another data set concerns the target T1, histamine H2-receptor (Cavia porcellus, UniProt P47747).
T1 construct: The atrium isolated from quinea-pigs was mounted in an organ bath; from tissue; host or cells: isolated guinea pig atrium
The data set can be described thus: H2-Blocking activity (isolated guinea pig atrium, chronotropic response to histamine). In kind it is cell-based. The following applies: isolated guinea pig atrium; test drugs 30 min. before 5 x 10^-6M histamine; dose producing 50% blockade of chronotropic response; read-out: 1)H2-bloc-kade guinea pig atrium ED50. Here is the method: In addition, the experiments were performed using a known compound, TZU-0460, i. e., N-[3-(3-(1-piperi- dinylmethyl)phenoxy]propyl]acetoxyacetamide hydrochloride shown by the following formula [drawing 9] HC1 disclosed in European Patent No. 24,510. • 1. Experimental procedure • 1) H2-Blocking activity:
The atrium isolated from quinea-pigs was mounted in an organ bath containing Krebs-Henseleit solution gassed with 95% 02 and 5% C02 at 37°C. The spontaneous movement of the atrium was recorded through a strain gauge (Nihon Koden, SB-1T) on a polygraph (Nihon Koden, RM-6200). The tissue was exposed to test drugs 30 min. before treatment with 5 x 10-^6M histamine. The dose of test drugs producing 50%blockade of chronotropic response to histamine was obtained from each preparation.

Data set [2] relates to Male Wistar rats. The data set can be described thus: Gastric secretion inhibiting activity (pylorus-ligated rat, 4hr. shay rat). Format: in vivo. Here is the method: 2) Gastric secretion inhibiting activity: Male Wistar rats (about 200 g) were fasted but allowed free access to water for 24 hours prior to the experiment. The pylorus was ligated after abdominal midline incision under ether anesthesia. Four hours later, the animals were killed for the collection of gastric juice. The test compounds were given p.o. 1 hour before the pylorus ligation. Gastric juice (0.5 ml) was titrated against 0.05 N NaOH up to pH 7.0 to determine acid concentration using an automatic titrator (Hiranuma Sangyo Co., Comtite 7). The total acid output was calculated as the product of gastric volume by acid concentration.

The next data set can be described thus: Acute toxicity LD50 iv. The following applies: in vivo, species not given.
Setting [3] is: po, 1 h, p.o., absolute ethanol (1 ml/rat) orally one hour after test compound; gastric lesions measured one hour later; read-out: 3)Cytopro-tection ethanol ulcer rat ED50(mg/kg p.o.).
The mark [4] stands for this setting: Rattus norvegicus, po, 4 h; p.o. 1 hour before pylorus ligation; gastric juice collected four hours later; total acid output; read-out: 2)Anti-secretion 4hr. shay rat ED50 (mg/kg p.o.).

Counter-ions that a name gives are not always drawn. Where only a bound is given, the exact number is not on record here.

T1 sequence (P47747 whole entry): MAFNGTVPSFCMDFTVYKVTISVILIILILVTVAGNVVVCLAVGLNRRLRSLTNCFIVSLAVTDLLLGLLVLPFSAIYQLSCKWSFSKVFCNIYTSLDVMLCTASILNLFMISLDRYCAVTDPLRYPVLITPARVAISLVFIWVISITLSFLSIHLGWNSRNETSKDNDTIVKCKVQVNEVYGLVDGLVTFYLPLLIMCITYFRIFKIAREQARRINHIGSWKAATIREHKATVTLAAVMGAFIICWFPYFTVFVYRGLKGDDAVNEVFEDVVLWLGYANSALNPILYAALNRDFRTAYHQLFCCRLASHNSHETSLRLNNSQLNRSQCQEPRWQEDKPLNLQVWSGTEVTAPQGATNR

Consider `C#CCc1c(C)[nH]c(NCCCOc2cccc(CN3CCCCC3)c2)nc1=O` [Example 9], for which the ED50 was determined as 23.3 mg/kg in the data set with Male Wistar rats [1] (setting [3]) and 3.1 mg/kg in the data set on Male Wistar rats [2] (setting [4]). The IC50 at histamine H2-receptor was found to be 210 nM.

In the case of `CC(=O)OCC(=O)NCCCOc1cccc(CN2CCCCC2)c1` [TZU-0460, N-[3-(3-(1-piperi-dinylmethyl)phenoxy]propyl]acetoxyacetamide hydrochloride, reference compound], the ED50 in the data set on Male Wistar rats [1] (Rattus norvegicus, po, 1 h, read-out: 3)Cytopro-tection ethanol ulcer rat ED50(mg/kg p.o.)) was determined as 46.4 mg/kg; with Male Wistar rats [2] (Rattus norvegicus, po, 4 h, read-out: 2)Anti-secretion 4hr. shay rat ED50 (mg/kg p.o.)), 35.1 mg/kg. In addition, on histamine H2-receptor, the IC50 is 370 nM.

On to `C=CCc1c(C)[nH]c(NCCCOc2cccc(CN3CCCC(C)C3)c2)nc1=O` (centres unmarked) [Example 30, 5-(2-Propenyl)-6-me thyl-2-[3-[m-(3-methylpiperidi-nomethyl)phenoxy]propylamino]-4(lH)-pyrimidone], for which the values for the ED50 with Male Wistar rats [1] (setting [3]) and with Male Wistar rats [2] (setting [4]) were 17 mg/kg and 18 mg/kg, respectively. In addition, the IC50 at histamine H2-receptor was 170 nM.

Regarding `CCCCCCCc1c(C)[nH]c(NCCCOc2cccc(CN3CCCCC3)c2)nc1=O` [Example 1, 5-heptyl-6-methyl-2-[3-[m-(piperidinomethyl)phenoxy]-propylamino]-4(lH)-pyrimidone di-hydrochloride], the figures for the ED50 in the data set with Male Wistar rats [1] (setting [3]) and in the data set with Male Wistar rats [2] (setting [4]) were 6 mg/kg and 2.6 mg/kg, respectively. Besides, the IC50 at histamine H2-receptor was over 1000 nM.

Take `C=C(C)Cc1c(C)[nH]c(NCCCOc2cccc(CN3CCCC(C)C3)c2)nc1=O` (centres unmarked) [Example 31, 6-Methyl-2-[3-[m-(3-methylpiperidinomethyl)pheno- : xy]propylamino]-5-(2-methyl-2-propenyl)-4(lH)-pyrimidone]: the results for the ED50 in the data set with Male Wistar rats [1] (setting [3]) and in the data set on Male Wistar rats [2] (setting [4]) were 13.6 mg/kg and 30.1 mg/kg, respectively. For the same compound, the IC50 at histamine H2-receptor came to 290 nM.

Consider `CC=CCc1c(C)[nH]c(NCCCOc2cccc(CN3CCCC3)c2)nc1=O` [Example 14, 5-(2-Butenyl)-6-methyl-2-[3-[m-(pyrrolidinylmethyl)-phenoxy]propylamino]-4(1H)-pyrimidone], for which the figures for the ED50 in the data set on Male Wistar rats [1] (setting [3]) and in the data set on Male Wistar rats [2] (setting [4]) were 41.4 mg/kg and 9.9 mg/kg, respectively. Also, the IC50 at histamine H2-receptor amounted to 820 nM.

Take `CCCCCc1c(CC)[nH]c(NCCCOc2cccc(CN3CCCCC3)c2)nc1=O` [Example 5, 6-Ethyl-5-pentyl-2-f3-[m-(piperidinomethyl)phenoxy]-propylamino]-4(lH)-pyrimidone dihydrochloride-dihydrate]: the ED50 is 9.6 mg/kg with Male Wistar rats [1] (setting [3]) and 19 mg/kg with Male Wistar rats [2] (setting [4]). Further, the IC50 on histamine H2-receptor was determined as 8900 nM.

What is called LD50 is the dose expected to kill half of the subjects tested. Low values mean a more toxic substance, high ones a less toxic substance. `CCCCc1c(C)[nH]c(NCCCOc2cccc(CN3CCCCC3)c2)nc1=O` [Example 4, 5-butyl-6-methyl-2-L3-[m-(piperidinomethyl)phenoxy]propylamino]-4(1H)-pyrimidone dihydrochloride] registered an LD50 in “Acute toxicity LD50 iv” of 61.1 mg/kg. Moreover, the ED50 came to 5.8 mg/kg with Male Wistar rats [1] (setting [3]) and 6.4 mg/kg in the data set with Male Wistar rats [2] (setting [4]). On histamine H2-receptor, the IC50 came out at 420 nM.

With `CCSCCc1c(C)[nH]c(NCCCOc2cccc(CN3CCCCC3)c2)nc1=O` [Example 15, 5-(2-Ethylthioethyl)-6-methyl-2-[3-[m-(piperidinomethyl)phenoxy]propylamino]-4(lH)-pyrimidone], the ED50 in the data set on Male Wistar rats [1] (setting [3]) was 25.4 mg/kg; in the data set on Male Wistar rats [2] (setting [4]) it was 10.9 mg/kg. Further, on histamine H2-receptor, the IC50 is 400 nM.

With `CCCc1c(C)[nH]c(NCCCOc2cccc(CN3CCCCC3)c2)nc1=O` [Example 7, 6-Methyl-2-[3-[m-(piperidinomethyl)phenoxy]propylamino]-5-propyl-4(lH)-pyrimidone], the ED50 was determined as 6.6 mg/kg with Male Wistar rats [1] (setting [3]) and 6.1 mg/kg with Male Wistar rats [2] (setting [4]). The IC50 at histamine H2-receptor was 510 nM.

As for `CC(C)=CCc1c(C)[nH]c(NCCCOc2cccc(CN3CCCCC3)c2)nc1=O` [Example 26, 6-methyl-5-(3-methyl-2-butenyl)-2-[3-[m-(piperidinomethyl)phenoxy]propylamino]-4(1H)-pyrimidone], the ED50 in the data set with Male Wistar rats [1] (setting [3]) was 20.5 mg/kg; with Male Wistar rats [2] (setting [4]) it was 5.2 mg/kg. The IC50 on histamine H2-receptor amounted to 360 nM.

Compound `CC=CCc1c(C)[nH]c(NCCCOc2cccc(CN3CCCC(C)C3)c2)nc1=O` (centres unmarked) [Example 12, 5-(2-Butenyl)-6-methyl-2-[3-[m-(3-methylpiperidino-methyl)phenoxy]propylamino]-4(1H)-pyrimidone] had an LD50 in the data set “Acute toxicity LD50 iv” of 42.5 mg/kg. The ED50 in the data set on Male Wistar rats [1] (setting [3]) was determined as 6.7 mg/kg; with Male Wistar rats [2] (setting [4]), 16.4 mg/kg. For the same compound, the IC50 at histamine H2-receptor was found to be 610 nM.
